Source: publication PMC10252594 (Cancers, 2023)
Read-outs that look alike come from different tables or passages of the source.

Experiments:
[1] = test system: LAPC-4 cells; assay: Total cholesterol in LAPC-4 cells (kit); type: cell-based, human; settings: RM-581 2 μM or atorvastatin 10 μM; for Total cholesterol concentration in LAPC-4 cells: Table S2
Protocol: A cholesterol quantification kit provided by Sigma-Aldrich (Catalog Number MAK043) was used following the manufacturer’s instructions to determine the concentration of total cholesterol, free cholesterol, and cholesteryl ester in samples. The cholesterol contents were measured in samples from two different protocols. […] Secondly, in tumor, liver, and plasma obtained at the end of the LAPC-4 xenograft experiment (control group and the group treated with RM-581 at 10 mg/kg/PO).

[2] = test system: LAPC-4 cells; assay: LAPC-4 cell viability proliferation and combination index assays (MTS, 6 days); type: cell-based; settings: Homo sapiens, LAPC4, 144 h, LAPC-4, six days of treatment; read-out: IC50, mean of three experiments (Figure 2A)
[3] = test system: LAPC-4 xenografts
Excerpt: The xenograft experiment was approved by the Université Laval Animal Care Committee (Comité de Protection des Animaux de l’Université Laval, Québec, QC, Canada) and carried out in an animal facility approved by the Canadian Council on Animal Care (CCAC). Homozygous male Balb/c athymic nude mice (~42 days old, weighing approximately 28 g) were obtained from Charles River Inc. (Saint-Constant, QC, Canada) and housed (4 to 5) in vinyl micro-isolated ventilated cages equipped with air lids. Cages were kept in laminar airflow hoods and maintained in pathogen-limiting conditions. The animals were housed under a controlled environment at 22 ± 3 °C with 50 ± 20% relative humidity and light set at 12 h/day (light on at 07:15) during the acclimatization and study periods. Sterile water and rodent food (Rodent Diet #T.2018.15, Harlan Teklad, Madison, WI, USA) were provided ad libitum.
After an acclimatization period of 5 days, the mice were inoculated into both flanks by subcutaneous (SC) injection of 4 × 10^6 LAPC-4 cells (Passage 14) in 0.1 mL of growth medium containing 50% Matrigel (BD Biosciences, Mississauga, ON, Canada) via a 2.5-cm long 22-gauge needle. Two weeks later, mice that developed tumors were randomized according to tumor volume, divided into […] groups (Gr-1 to Gr-8), and treated over a period of 28 days. A bilateral orchiectomy was performed under isoflurane-induced anesthesia for Gr-1 but not for Gr-2 to Gr-8. Both Gr-1 (CTX control (CTL), 9 mice, 16 tumors) and Gr-2 (intact CTL, 9 mice, 18 tumors) were treated with 0.1 mL of the vehicle alone (8% DMSO/92% propylene glycol (PG) administered by gavage (PO). Gr-3 (30 mg/kg/PO, 10 mice, 19 tumors) received 0.843 mg of RM-581. Gr-4 (10 mg/kg/PO, 10 mice, 20 tumors) received 0.281 mg of RM-581. Gr-5 (3 mg/kg/PO, 10 mice, 18 tumors) received 0.084 mg of RM-581. Gr-6 (60 mg/kg/SC, 9 mice, 18 tumors) received 1.686 mg of abiraterone. Gr-7 (60 mg/kg/PO, 9 mice, 17 tumors) received 1.686 mg of abiraterone acetate. Gr-8 (4 mg/kg/IP, 9 mice, 17 tumors) received 0.112 mg of docetaxel.
RM-581 and abiraterone acetate were administered six days a week PO; abiraterone was administered six days a week SC; and docetaxel was administered twice a week by intraperitoneal (IP) injection. RM-581 was first dissolved in DMSO, and thereafter we added PG to obtain the appropriate concentration in the vehicle fluid (8% DMSO/92% PG). Abiraterone acetate and abiraterone were dissolved in 0.3% hydroxypropyl cellulose in saline (0.9% NaCl), while docetaxel was first dissolved in DMSO, and thereafter we added phosphate-buffered saline (PBS) to obtain the proper concentration in the carrier fluid (0.5% DMSO/99.5% PBS). All solutions were prepared one day prior to the initiation of treatment and stored at 4 °C under constant agitation.
The mice were weighed at the start and end of the protocol. Tumor area (mm^2) was calculated twice a week using two perpendicular diameters (L and W), which were recorded using a caliper, and the formula L/2 × W/2 × π. The area measured on the first day of treatment was fixed at 100%. At the end of the studies and 3 h after the last treatment, the mice were terminally anesthetized, and their final body weights were measured. Tumors, liver, kidney, and total prostate were collected from mice during necropsy, while blood was collected by cardiac puncture. Tissues and plasma were immediately frozen at −80 °C until analysis.

[4] = test system: LNCaP; parameters: method as in PMID 34681843; settings: AR positive, three days, MTS; cited from earlier work
[5] = Tolerated dose of RM-581 in mice (dose escalation); type: in vivo
Protocol: It is important to note that animal death is not an accepted endpoint for CCAC. RM-581 was first dissolved in DMSO, and PG was added to obtain a final 8% concentration of co-solvent DMSO. The injected volume was 0.1 mL, but the number of injections ranged from 1, 2, or 3 to obtain the expected dose. Each week for […] consecutive weeks, an increased dose (60, 120, 240, 360, 480, 600, or 720 mg/kg) of RM-581 was administered by gavage (PO), and the mice were weighed and observed for 7 days to notice any signs of toxicity. The protocol was applied to four groups (Gr) divided as follows: Gr-1: 5 female mice received the vehicle only; Gr-2: 5 male mice received the vehicle only; Gr-3: 5 female mice treated with RM-581; and Gr-4: 5 male mice treated with RM-581.

[6] = test system: LAPC-4; assay: PCa cell viability proliferation screening (MTS), LAPC-4; type: cell-based; settings: Homo sapiens, LAPC4, 72 h, LAPC-4, AR positive, three days
Protocol: VCaP (4 × 10^4 cells/well) were seeded in 96-well plates in DMEM media supplemented with 10% fetal bovine serum (FBS), penicillin, streptomycin, and sodium pyruvate. 22Rv1 cells (2 × 10^3 cells/well) and LAPC-4 cells (6 × 10^3 cells/well) were seeded in 96-well plates in RPMI media supplemented with 10% FBS, penicillin, streptomycin, and sodium pyruvate. The cells were incubated at 37 °C in a 5% CO2 humidified atmosphere for 24 h before treatment with multiple concentrations of RM-581 dissolved in dimethyl sulfoxide (DMSO). The concentrations used were between 0.01 μM and 50 μM. Treatment lasted for 3 days for all the cell lines except VCaP cells, which were treated for 7 days due to slower proliferation rates. At the end of the assay, 20 μL of MTS (Cell Titer 96 Aqueous, Promega, Nepean, ON, Canada) were added to each well, and the mixture was incubated for 4 h at 37 °C. The plates were subsequently analyzed at 490 nm using a Tecan M-200 microplate reader (Männedorf, Switzerland).

SMILES: C#C[C@]1(O)CC[C@H]2[C@@H]3CCc4cc(OC)c(N5CCN(C(=O)[C@@H]6CCCN6C(=O)c6ccc7ccccc7n6)CC5)cc4[C@H]3CC[C@@]21C [RM-581]
- Total cholesterol in LAPC-4 cells vs untreated cells ([1]; 18, 36, or 72 h): did not show a significant difference
- Total cholesterol concentration in LAPC-4 cells ([1]; 18 h): 68 ± 3
- Total cholesterol concentration in LAPC-4 cells ([1]; 36 h): 69 ± 6
- Total cholesterol concentration in LAPC-4 cells ([1]; 72 h (first line, control 66 ± 2)): 69 ± 4
- IC50 [2]: 430 ± 130 nM
- time to significant difference with intact (untreated) group ([3]; 3 mg/kg PO): 14 days
- tumor growth ([3]; 3 mg/kg PO, 6 days per week): tumors returned to their original size after 22 days
- time to significant difference with intact (untreated) group ([3]; 10 mg/kg PO): 7 days
- tumor size compared with 30 mg/kg group ([3]; 10 mg/kg PO, 6 days per week, day 28): identical at the end of the protocol
- time to significant difference with intact (untreated) group ([3]; 30 mg/kg PO): 7 days
- reduction in the initial tumor size at end of protocol ([3]; 30 mg/kg PO, 6 days per week, day 28): 88%
- effective oral doses for tumor regression ([3]; LAPC-4 xenograft, PO): 3 to 30 mg/kg
- IC50 [4]: 1200 nM
- therapeutic index ([5]; assuming effective dose of 30 mg/kg): > 24
- signs of toxicity, dose escalation ([5]; normal male and female mice, 60, 120, 240, 360, 480, 600 and 720 mg/kg PO weekly): no signs of toxicity
- body weight, treated vs control groups ([5]; normal mice, dose escalation up to 720 mg/kg PO, 7 weeks): no significant body weight difference
- IC50 [6]: 560 nM
